Here are results for three compounds from patent US20260201008A1, “SECRETIN-DERIVED GLP1R SELECTIVE AGONISTS” (GUBRA A/S, priority 2023, published 2026).

Data set [1] in a line: Fibril formation of crude library peptides (Thioflavin T). It counts as physicochemical. On the set-up: key: average ThT fluorescence emission at 480 nm (ex 450 nm), raw units. As to conditions: Physical stability of peptides. In short, it runs like this: (§1)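 Values reflect mean ThT emission (ex 450, em 480 nm) over 72 h at 40° C, read every 10 min after 5 min shaking at 700 rpm, plus a single initial absorbance at 600 nm for turbidity. Peptides were at 267 μM, pH 4.0 acetate or pH 7.0 phosphate (50 mM), with 4 μM ThT.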

The target of another data set is GLP1R (Homo sapiens, UniProt P43220). Nature of the data set: hGLP1R potency, cAMP accumulation in CHO-K1 cells stably overexpressing hGLP1R. Particulars: for EC50: cAMP accumulation, CHO-K1 cells overexpressing hGLP1R; for Selectivity: SCTR EC50/GLP1R EC50 ratio. The arrangement: host or cells: CHO-K1. It counts as cell-based. In short, it runs like this: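 Cells were plated in DPBS with 0.05% casein and 0.5 mM IBMX, then stimulated for 30 min at room temperature with test compound. cAMP was read by TR-FRET after one hour. EC50 came from variable-slope sigmoid nonlinear regression; purified peptides ran as 11-point 3-fold series, n=2.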
Chain of GLP1R (P43220 24-463): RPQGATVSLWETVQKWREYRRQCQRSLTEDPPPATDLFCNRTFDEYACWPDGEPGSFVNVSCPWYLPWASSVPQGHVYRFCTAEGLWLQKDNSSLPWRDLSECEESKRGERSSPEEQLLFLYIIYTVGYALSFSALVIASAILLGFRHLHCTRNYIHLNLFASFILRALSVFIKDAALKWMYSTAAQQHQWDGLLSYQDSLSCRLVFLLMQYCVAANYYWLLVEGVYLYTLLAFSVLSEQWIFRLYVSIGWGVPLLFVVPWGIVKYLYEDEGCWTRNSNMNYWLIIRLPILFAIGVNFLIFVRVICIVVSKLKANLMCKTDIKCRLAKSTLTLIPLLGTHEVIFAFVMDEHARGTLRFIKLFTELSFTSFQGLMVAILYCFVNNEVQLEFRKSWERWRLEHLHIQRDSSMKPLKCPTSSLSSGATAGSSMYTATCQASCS
(In general: Changes in cAMP serve as a functional read-out for many G protein-coupled receptors.)

The next data set deals with SCTR (Homo sapiens, UniProt P47872). In words: hSCTR potency, cAMP accumulation in CHO-K1 cells stably overexpressing hSCTR. It counts as cell-based. The arrangement: alternatively Euroscreen ES-712-AF; FAST-0161L; host or cells: CHO-K1. As to conditions: cAMP accumulation, CHO-K1 cells overexpressing hSCTR. An outline of the steps:
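Division-arrested CHO-K1 cells stably expressing hSCTR were plated in DPBS with 0.05% casein and 0.5 mM IBMX, then stimulated with test peptide for 30 min at room temperature. cAMP was read by HTRF after one hour. EC50 came from variable-slope sigmoidal nonlinear regression.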

Data set [2] can be described thus: Turbidity of crude library peptides (absorbance at 600 nm). It counts as physicochemical. As to conditions: Physical stability of peptides. In short, it runs like this:
as §1

Where [3] appears, read: read-out: pEC50 hGLPR1 (converted).
[4] abbreviates: read-out: pEC50 hSCTR (converted).

The structures appear in SMILES notation. Where two headings read alike, the source gives them in different places. Numbered stars: 1 amine (or outer) side, 2 acyl side, 3 side chain; on linkers, the order of the positions; unused ones are H or OH. Square brackets hold non-standard residues; d marks the D form. Side chains are listed from the residue outwards. Peptide text beside a SMILES is read from it. * marks the point of attachment. C20 diacid = O=C(O)CCCCCCCCCCCCCCCCCCC(=O)*; γGlu = O=C(O)[C@H](CCC(=O)[*:2])N[*:1]; AEEA = NCCOCCOCC(=O)O; Aib = CC(C)(N)C(=O)O

Chain of SCTR (P47872 23-440): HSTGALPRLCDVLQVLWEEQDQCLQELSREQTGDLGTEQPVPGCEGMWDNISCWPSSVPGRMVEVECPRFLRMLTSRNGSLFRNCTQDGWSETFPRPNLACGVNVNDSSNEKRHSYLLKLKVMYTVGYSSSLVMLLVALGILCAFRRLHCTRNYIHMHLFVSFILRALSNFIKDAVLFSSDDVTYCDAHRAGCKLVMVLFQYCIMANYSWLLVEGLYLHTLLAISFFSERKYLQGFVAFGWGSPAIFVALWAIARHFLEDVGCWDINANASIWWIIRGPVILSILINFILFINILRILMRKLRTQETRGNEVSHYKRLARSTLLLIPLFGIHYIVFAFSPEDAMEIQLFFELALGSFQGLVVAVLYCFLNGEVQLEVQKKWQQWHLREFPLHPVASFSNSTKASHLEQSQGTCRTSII

On to `CC(C)C[C@H](NC(=O)[C@H](Cc1ccccc1)NC(=O)[C@H](CCCNC(=N)N)NC(=O)[C@H](CCC(N)=O)NC(=O)[C@H](CCC(N)=O)NC(=O)[C@H](C)NC(=O)[C@H](C)NC(=O)[C@H](Cc1ccccc1)NC(=O)[C@H](CCC(=O)O)NC(=O)[C@H](CCCCNC(=O)COCCOCCNC(=O)COCCOCCNC(=O)CC[C@H](NC(=O)CCCCCCCCCCCCCCCCCCC(=O)O)C(=O)O)NC(=O)[C@H](CC(C)C)NC(=O)[C@@H](NC(=O)[C@H](CO)NC(=O)[C@@H](NC(=O)[C@H](CC(=O)O)NC(=O)[C@H](CO)NC(=O)[C@@H](NC(=O)[C@H](Cc1ccccc1)NC(=O)[C@@H](NC(=O)CNC(=O)[C@H](CCC(=O)O)NC(=O)C(C)(C)NC(=O)[C@@H](N)Cc1c[nH]cn1)[C@@H](C)O)[C@@H](C)O)C(C)C)[C@@H](C)O)C(=O)N[C@@H](CCC(=O)O)C(=O)N[C@@H](Cc1c[nH]cn1)C(=O)N[C@@H](CC(C)C)C(=O)N[C@H](C(N)=O)C(C)C` [compound 100] (H-H[Aib]EGTFTSDVSTLK([AEEA-AEEA-γGlu-C20 diacid])EFAAQQRFLEHLV-NH2), for which, in data set [1], the Fibril formation turned out to be 24482. The EC50 on GLP1R (read-out: hGLP1R pEC50 (converted)) is 0.126 nM; at SCTR (read-out: hSCTR pEC50 (converted)), 794 nM. Besides, at GLP1R (selectivity for hGLP1R over hSCTR, cAMP accumulation in CHO-K1 cells), the “SCTR EC50/GLP1R EC50 ratio” value is on record as 6301. In data set [2], the “Turbidity (pH 7)” value is on record as 0.08.

`CC(C)C[C@H](NC(=O)[C@H](Cc1ccccc1)NC(=O)[C@H](CCCNC(=N)N)NC(=O)[C@H](CCC(N)=O)NC(=O)[C@H](CO)NC(=O)[C@H](C)NC(=O)[C@H](C)NC(=O)[C@H](CCC(=O)O)NC(=O)[C@H](CCC(=O)O)NC(=O)[C@H](CCCCNC(=O)COCCOCCNC(=O)COCCOCCNC(=O)CC[C@H](NC(=O)CCCCCCCCCCCCCCCCCCC(=O)O)C(=O)O)NC(=O)[C@H](CC(C)C)NC(=O)[C@H](Cc1ccc(O)cc1)NC(=O)[C@H](CO)NC(=O)[C@@H](NC(=O)[C@H](CC(=O)O)NC(=O)[C@H](CO)NC(=O)[C@@H](NC(=O)[C@H](Cc1ccccc1)NC(=O)[C@@H](NC(=O)CNC(=O)[C@H](CCC(=O)O)NC(=O)C(C)(C)NC(=O)[C@@H](N)Cc1c[nH]cn1)[C@@H](C)O)[C@@H](C)O)C(C)C)C(=O)N[C@@H](CCC(=O)O)C(=O)N[C@@H](Cc1c[nH]cn1)C(=O)N[C@@H](CC(C)C)C(=O)N[C@H](C(N)=O)C(C)C` [compound 75] (H-H[Aib]EGTFTSDVSYLK([AEEA-AEEA-γGlu-C20 diacid])EEAASQRFLEHLV-NH2) showed a Fibril formation in data set [1] of 9457. Moreover, at GLP1R, the Selectivity is 133506. In addition, the values for the EC50 on GLP1R (setting [3]) and at SCTR (setting [4]) were 0.0251 nM and 3160 nM, respectively. The “Turbidity (pH 7)” value in data set [2] is 0.08.

As for `CC(C)C[C@H](NC(=O)[C@H](Cc1ccccc1)NC(=O)[C@H](CCCNC(=N)N)NC(=O)[C@H](CCC(N)=O)NC(=O)[C@@H](NC(=O)[C@H](C)NC(=O)[C@H](C)NC(=O)[C@@H](NC(=O)[C@H](CCC(=O)O)NC(=O)[C@H](CCCCNC(=O)COCCOCCNC(=O)COCCOCCNC(=O)CC[C@H](NC(=O)CCCCCCCCCCCCCCCCCCC(=O)O)C(=O)O)NC(=O)[C@H](CC(C)C)NC(=O)[C@H](Cc1ccccc1)NC(=O)[C@H](CO)NC(=O)[C@@H](NC(=O)[C@H](CC(=O)O)NC(=O)[C@H](CO)NC(=O)[C@@H](NC(=O)[C@H](Cc1ccccc1)NC(=O)[C@@H](NC(=O)CNC(=O)[C@H](CCC(=O)O)NC(=O)C(C)(C)NC(=O)[C@@H](N)Cc1c[nH]cn1)[C@@H](C)O)[C@@H](C)O)C(C)C)[C@@H](C)O)[C@@H](C)O)C(=O)N[C@@H](CCC(=O)O)C(=O)N[C@@H](Cc1c[nH]cn1)C(=O)N[C@@H](CC(C)C)C(=O)N[C@H](C(N)=O)C(C)C` [compound 70] (H-H[Aib]EGTFTSDVSFLK([AEEA-AEEA-γGlu-C20 diacid])ETAATQRFLEHLV-NH2), the Fibril formation in data set [1] was determined as 99118. For the same compound, the Selectivity on GLP1R stood at 4095. For the same compound, the values for the EC50 at GLP1R (setting [3]) and at SCTR (setting [4]) were 0.02 nM and 100 nM, respectively. The “Turbidity (pH 7)” value in data set [2] is given as 0.11.
